Experimental data published in patent US8791155B2, “Chroman derivatives” (Edison Pharmaceuticals, Inc., priority 2003, dated 2014).

Molecular target: T1, human recombinant 5-lipoxygenase (Homo sapiens, UniProt P09917)
T1 construct: purchased Cayman 60402
T1 sequence (P09917 1-674): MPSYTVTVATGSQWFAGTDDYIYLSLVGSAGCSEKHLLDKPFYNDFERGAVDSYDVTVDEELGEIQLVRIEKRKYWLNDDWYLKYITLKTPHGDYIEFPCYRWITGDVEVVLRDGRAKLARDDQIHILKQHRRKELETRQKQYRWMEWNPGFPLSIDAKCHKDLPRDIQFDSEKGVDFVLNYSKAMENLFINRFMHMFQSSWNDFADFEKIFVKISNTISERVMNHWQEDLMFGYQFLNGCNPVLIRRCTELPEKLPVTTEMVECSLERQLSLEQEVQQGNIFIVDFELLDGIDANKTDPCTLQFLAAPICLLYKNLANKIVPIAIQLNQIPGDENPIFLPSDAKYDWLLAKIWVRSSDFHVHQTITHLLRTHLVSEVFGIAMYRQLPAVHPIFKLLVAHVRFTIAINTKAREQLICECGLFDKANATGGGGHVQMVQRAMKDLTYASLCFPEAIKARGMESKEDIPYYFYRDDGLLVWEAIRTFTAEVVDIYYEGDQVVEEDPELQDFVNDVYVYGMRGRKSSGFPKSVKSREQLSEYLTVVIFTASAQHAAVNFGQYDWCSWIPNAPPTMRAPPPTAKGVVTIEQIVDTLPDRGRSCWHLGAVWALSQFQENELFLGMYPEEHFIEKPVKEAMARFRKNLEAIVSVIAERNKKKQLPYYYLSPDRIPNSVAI
Test: 5-Lipoxygenase enzyme assay
Format: biochemical
Conditions: 70 μM arachidonic acid, pH 7.4, 10 minute incubation; read-out: IC50, inhibition of 5-Lipoxygenase
Text: In vitro evaluation of the ability of a composition to inhibit the enzymes 5-lipoxygenase, 15-lipoxygenase, or 12/15 lipoxygenase as described in Walidge, N. B. et al Anal. Biochem., 231: 354-358 (1995) using a high throughput colorimetric method; as well as in vitro evaluation of inhibiting LTB4 is described in Examples.
This procedure was used for measuring the enzymatic activity of human recombinant 5-lipoxygenase using a colorimetric method based on the ferric oxidation of xylenol orange.
• 96 well flat bottom microfilter plates (VWR, Catalog #62402-933 9295) • Lipoxygenase screening assay buffer (Cayman, Catalog #760710) • Human recombinant 5-lipoxygenase (Cayman, Catalog #60402) • Arachidonic Acid (Sigma, Catalog #A3555) • Xylenol orange tetrasodium salt (Aldrich, Catalog #227854) • Iron (II) sulfate heptahydrate (Sigma, Catalog #F7002) • Sulfuric acid (95-98%) [18M]—Methanol Procedure
Human recombinant 5-lipoxygenase (Cayman Cat #60402) was used in this assay. The test compound and/or vehicle was added to 0.51-1 5-lipoxygenase in 50 mM Tris-HCl buffer, pH 7.4. The reaction was initiated by addition of 70 μM arachidonic acid in Tris-HCl buffer, pH 7.4, and terminated after a 10 minute incubation at room temperature by addition of FOX reagent (25 mM sulphuric acid, 100 μM xylenol orange, 100 μM iron (II) sulphate, methanol:water 9:1). The yellow color of acidified xylenol orange was converted to a blue color by the lipid hydroperoxide-mediated oxidation of Fe 2+ ions and the interaction of the resulting Fe 3+ ions with the dye. The complex was allowed to form during a 1 hour incubation at room temperature with shaking. Absorbance of the Fe 3+ complex was then measured at […] using a spectrophotometer.
Negative controls contained enzyme during the incubation step but substrate was not added until after the FOX reagent.
Compounds were screened at 5 concentrations in triplicate starting at 10 μM

Compound	IC50 [nM]
C=CCSCc1c(O)c(C)c(C)c2c1CCC(C)(C)O2 [5-Allylsulfanylmethyl-2,2,7,8-tetramethyl-chroman-6-ol]	< 1000
Cc1c(C)c2c(c(C)c1O)CCC(C)(C=C(Br)Br)O2 (centres unmarked) [2-(2,2-Dibromo-vinyl)-2,5,7,8-tetramethyl-chroman-6-ol]	< 1000
